Results: patent US20060166953A1, “Ciclesonide-containing sterile aqueous suspension” (priority 2002, published 2006)

Assay: Chemical stability of drug in the aqueous suspension against autoclaving (recovery rate by HPLC)
Type: physicochemical
Procedure: Comparison of Chemical Stability of Drug in the Aqueous Suspension Against Autoclaving
The suspension of Example 1 was put into a 500 mL glass container with a screw cap and sterilized by autoclaving at 121 degrees C. for 20 minutes. Subsequently, after mixing the suspension in the glass container, the ciclesonide concentration was quantified by HPLC.
The recovery rate of ciclesonide after the autoclaving was calculated by taking the ciclesonide concentration before the autoclaving to be 100%. The recovery rates of budesonide and beclomethasone dipropionate after the autoclaving were calculated by the same method.

Degradation by autoclaving procedure | SMILES
degraded | CCCC1O[C@@H]2C[C@H]3[C@@H]4CCC5=CC(=O)C=C[C@]5(C)[C@H]4[C@@H](O)C[C@]3(C)[C@]2(C(=O)CO)O1 (stereo partly drawn) [budesonide, 16α,17-[(1RS)-butylidene-bis(oxy)]-11β,21-dihydroxypregna-1,4-diene-3,20-dione]
not degraded | CC(C)C(=O)OCC(=O)[C@@]12O[C@H](C3CCCCC3)O[C@@H]1C[C@H]1[C@@H]3CCC4=CC(=O)C=C[C@]4(C)[C@H]3[C@@H](O)C[C@@]12C [ciclesonide, (11β,16α)-16,17-[cyclohexylmethylenebis(oxy)]-11-hydroxy-21-(2-methyl-1-oxopropoxy)pregna-1,4,-diene-3,20-dione]
